Results from patent US12076330B2, “Inhibition of lipofuscin aggregation by molecular tweezers” (The Regents of the University of California, priority 2018, dated 2024).
“Also recorded” adds a separate entry of the source.

Tests used:
Format in all cases: cell-based, human
[1] = tested on: lipofuscin (A2E) aggregation in ARPE-19 cells (retinal pigmented epithelium); assay: Lipofuscin A2E accumulation/aggregation in ARPE-19 cells, fluorescence microscopy after 6 h
Method: (§1) Panel A) CLR01 in PBS and lipofuscin A2E were added to the cells at the indicated times. Cells were incubated up to 6 h in all cases and were imaged using a fluorescence microscope for visualization of lipofuscin autofluorecence (red) and cell nuclei (DAPI, blue). Panel B) Quantification of the data shown in panel A (N=15 per condition). C) Confocal microscopy images showing that lipofuscin colocalizes with the Lysosomal-membrane marker lamp1.
To test the effect of CLR01 on lipofuscin aggregation, human, ARPE-19 cells (retinal pigmented epithelium; RPE) were treated with lipofuscin (A2E) in the absence or presence of CLR01 and imaged by fluorescence microscopy at the end of 6 h of incubation (FIG. 1, panel A), as follows: • Condition 1—negative control—20 μl of PBS was added to the cells at t=0 and 20 μl of DMSO at t=1.5 h. • Condition 2—safety control—CLR01 in PBS at final concentration of 100 μM was added to the cells at t=0 and DMSO at t=1.5 h. • Condition 3—positive control—PBS was added to the cells at t=0 and lipofuscin A2E in DMSO at final concentration of 100 μM at t=1.5 h. Lipofuscin A2E is a specific type of lipofuscin enriched in N-retinylidene-N-retinylethanolamine (A2E), which is derived from 11-cis-retinal and accumulates in the retinal pigmented epithelium (Boyer et al. (2012) J. Biol. Chem. 287: 22276-22286). • Condition 4—CLR01 in PBS at final concentration of 100 μM was added to the cells at t=0, after 1.5 h, the media was removed, the cells were washed with F12 medium, and new media was added. Lipofuscin A2E in DMSO at final concentration of 100 μM was added at t=1.5 h. • Condition 5—Lipofuscin A2E in DMSO was added to the cells at t=0 and CLR01 in PBS at final concentration of 100 μM was added at t=1 h.

[2] = tested on: lysosomes (LAMP-1) in ARPE-19 cells; assay: Confocal imaging of lipofuscin A2E and LAMP-1 in ARPE-19 cells
Method: as §1

[3] = tested on: pre-formed lipofuscin (A2E) aggregates in ARPE-19 cells; assay: Effect on pre-formed lipofuscin aggregates in ARPE-19 cells (A2E 10 h, wash, CLR01 12 h); conditions: A2E 100 μM for 10 h, CLR01 100 μM for 12 h
Method: FIG. 2, panel A) CLR01 in PBS and lipofuscin A2E were added to the cells at the indicated times. Cells were incubated up to 22 hours in all cases and were imaged using a fluorescence microscope for visualization of lipofuscin autofluorecence (red) and cell nuclei (DAPI, blue). FIG. 2, panel B) Quantification of the data shown in […] (N=15 per condition). Condition 1—negative control—20 μl of DMSO was added to the cells at t=0. After 10 h, the media was removed, the cells were washed with F12 medium, and new media was added. Condition 2—positive control—Lipofuscin A2E in DMSO at final concentration of 100 μM was added to the cells at t=0. After 10 h, the media was removed, the cells were washed with F12 medium, and new media was added. Condition 3—Lipofuscin A2E in DMSO was added to the cells at t=0. After 10 h, the media was removed, the cells were washed with F12 medium, and new media was added. CLR01 in PBS at final concentration of 100 μM was added at t=10 h.
The effect of CLR01 on pre-formed lipofuscin aggregates was tested as well. Human, ARPE-19 cells were treated with lipofuscin (A2E) for 10 h (to let lipofuscin aggregates form). Upon washing the cells to remove A2E from the media, CLR01 was added to the medium for an additional period of 12 h. Cells were then imaged by fluorescence microscopy and fluorescence quantified (FIG. 2). […]

lysosome integrity [2]: lysosome integrity was not affected
Substance: CLR01
inhibition of lipofuscin accumulation and aggregation (overall finding) ([1]; ARPE-19 retinal cells, CLR01 100 μM, lipofuscin A2E 100 μM): inhibits lipofuscin accumulation and aggregation; also recorded: powerfully inhibits the formation of lipofuscin aggregates
harm to the cells (safety control) ([1]; condition 2: CLR01 100 μM at t=0, DMSO at t=1.5 h, no A2E, ARPE-19 cells, 6 h): did not harm the cells
reduction of the accumulation of lipofuscin aggregates at 6 h ([1]; condition 4: CLR01 100 μM at t=0, washed out after 1.5 h, then lipofuscin A2E 100 μM, ARPE-19 cells, 6 h): ~60%
accumulation of lipofuscin aggregates ([1]; condition 5: lipofuscin A2E at t=0, CLR01 100 μM added at t=1 h, ARPE-19 cells, 6 h): reduced almost to the negative-control level
clearing effect compared with condition 5 of FIG. 1 (CLR01 added simultaneously with lipofuscin loading) [3]: lower
